{"source": "patent US20050277597A1", "about": "“Use of N-L-alpha-aspartyl-L-phenylalanine 1-methyl ester to treat sunburn and other burns” (Oklahoma Medical Research Foundation, priority 2004, published 2005)", "origin": "cited, not measured here", "note": "Where a SMILES comes first, the peptide text is derived from it."}
{"smiles": "COC(=O)[C@H](Cc1ccccc1)NC(=O)[C@@H](N)CC(=O)O", "note": "[aspartame, N-L-aspartyl-L-phenyalanine 1-methyl ester] (H-Asp-Phe-OMe)", "values": [{"measurement": "maximum solubility in water", "setting": "pH 2.2, 25° C.", "result": 20, "unit": "mg/mL"}, {"measurement": "minimum solubility in water", "setting": "pH 5.2 (pHi), 25° C.", "result": 13.5, "unit": "mg/mL"}]}
